Data from ChEMBL document CHEMBL1129257, “Potent inhibition of tumor necrosis factor-alpha production by tetrafluorothalidomide and tetrafluorophthalimides” (J Med Chem, 1996).

Columns and labels:
Format in all cases: functional
[1] = target: T1, Tumor necrosis factor (Homo sapiens, UniProt P01375); assay: Inhibition of TNF-alpha production from human monocytes upon stimulation with bacterial lipopolysaccharide (LPS) at a concentration of 215 uM,
[2] = target: T1, Tumor necrosis factor; assay: Inhibition of TNF-alpha production from human monocytes upon stimulation with bacterial lipopolysaccharide (LPS) at a concentration of 1 uM; details: values are per cent of control
[3] = target: T1, Tumor necrosis factor; assay: Inhibition of TNF-alpha production from human monocytes upon stimulation with bacterial lipopolysaccharide (LPS) at a concentration of 100 uM,
[4] = target: T1, Tumor necrosis factor; assay: Inhibition of TNF-alpha production from human monocytes upon stimulation with bacterial lipopolysaccharide (LPS) at a concentration of 464 uM
[5] = target: T1, Tumor necrosis factor; assay: Inhibition of TNF-alpha production from human monocytes upon stimulation with bacterial lipopolysaccharide (LPS) at a concentration of 464 nM,
[6] = target: T1, Tumor necrosis factor; assay: Inhibition of TNF-alpha production from human monocytes upon stimulation with bacterial lipopolysaccharide (LPS) at a concentration of 215 nM,
[7] = target: T1, Tumor necrosis factor; assay: Inhibition of TNF-alpha production from human monocytes upon stimulation with bacterial lipopolysaccharide (LPS) at a concentration of 100 nM,
[8] = target: T1, Tumor necrosis factor; assay: Inhibition of TNF-alpha production from human monocytes upon stimulation with bacterial lipopolysaccharide (LPS) at a concentration of 215 nM; details: values are per cent of control
[9] = target: T1, Tumor necrosis factor; assay: Inhibition of TNF-alpha production from human monocytes upon stimulation with bacterial lipopolysaccharide (LPS) at a concentration of 100 nM; details: values are per cent of control
[10] = target: T1, Tumor necrosis factor; assay: Inhibition of TNF-alpha production from human monocytes upon stimulation with bacterial lipopolysaccharide (LPS) at a concentration of 464 nM; details: values are per cent of control
[11] = target: T1, Tumor necrosis factor; assay: Inhibitory activity against TNF-alpha production
[12] = target: T1, Tumor necrosis factor; assay: Inhibition of TNF-alpha production from human monocytes upon stimulation with bacterial lipopolysaccharide (LPS) at a concentration of 200 uM

T1 sequence (P01375 whole entry): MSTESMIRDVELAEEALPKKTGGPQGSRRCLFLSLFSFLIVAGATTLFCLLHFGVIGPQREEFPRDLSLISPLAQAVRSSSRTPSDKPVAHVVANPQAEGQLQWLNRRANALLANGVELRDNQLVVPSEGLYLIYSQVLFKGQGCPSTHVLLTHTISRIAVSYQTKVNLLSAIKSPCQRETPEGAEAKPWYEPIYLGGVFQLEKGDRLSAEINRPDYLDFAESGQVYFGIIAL

| Structure (SMILES) | response, % of control [2] | response, % of control [8] | response, % of control [9] | response, % of control [10] | other results |
| --- | --- | --- | --- | --- | --- |
| COC(=O)CC(c1ccc(OC)c(OC)c1)N1C(=O)c2c(F)c(F)c(F)c(F)c2C1=O (racemic) | -5% | – | – | – | inhibition [1]: 30%; inhibition [3]: 55%; inhibition [4]: 10% |
| CCc1cccc(CC)c1N1C(=O)c2c(F)c(F)c(F)c(F)c2C1=O | -1% | – | – | – | inhibition [5]: 2%; inhibition [6]: 20%; inhibition [7]: 43% |
| CC(C)c1cccc(C(C)C)c1N1C(=O)c2c(Br)c(Br)c(Br)c(Br)c2C1=O | 62% | 70% | 80% | 53% | – |
| O=C1CCC(N2C(=O)c3c(F)c(F)c(F)c(F)c3C2=O)C(=O)N1 (racemic) | 4% | 70% | 85% | 40% | IC50 [11]: 400 nM |
| O=C1CCC(N2C(=O)c3ccccc3C2=O)C(=O)N1 (stereo unspecified) | – | – | – | – | inhibition [12]: 64% |
| CC(C)c1cccc(C(C)C)c1N1C(=O)c2c(Cl)c(Cl)c(Cl)c(Cl)c2C1=O | 70% | 80% | 75% | 70% | – |
| O=C1c2c(F)c(F)c(F)c(F)c2C(=O)N1c1ccccc1 | 65% | 65% | 65% | 70% | – |
| CC(C)(C)c1cccc(C(C)(C)C)c1N1C(=O)c2c(F)c(F)c(F)c(F)c2C1=O | -2% | 30% | 40% | 15% | – |
| Cc1cccc(C)c1N1C(=O)c2c(F)c(F)c(F)c(F)c2C1=O | 3% | 50% | 62% | 30% | – |
| O=C1CCC(N2C(=O)c3c(Br)c(Br)c(Br)c(Br)c3C2=O)C(=O)N1 (racemic) | 53% | 60% | 70% | 62% | – |
| CC(C)c1cccc(C(C)C)c1N1C(=O)c2c(F)c(F)c(F)c(F)c2C1=O | 5% | 10% | 40% | 2% | – |
| O=C1CCC(N2C(=O)c3c(Cl)c(Cl)c(Cl)c(Cl)c3C2=O)C(=O)N1 (racemic) | 75% | 90% | 80% | 80% | – |
